pKi: −log10 of the molar value.

The test system of the first test is rat brains after transient middle cerebral artery occlusion (MCAO).
Assay: not given
Particulars: cited from earlier work.
As for “IGF-1: IGF-1 (insulin growth factor-1), a known GSK-3 inhibitor”, the infarct size entry is “reduced infarct size”.

For a further test, the target named is T1, GSK-3β(AA 1-420) (Homo sapiens, UniProt P49841).
T1 construct: GSK-3β(AA 1-420)
T1 sequence (P49841 whole entry, species assumed, the tested form may be a part): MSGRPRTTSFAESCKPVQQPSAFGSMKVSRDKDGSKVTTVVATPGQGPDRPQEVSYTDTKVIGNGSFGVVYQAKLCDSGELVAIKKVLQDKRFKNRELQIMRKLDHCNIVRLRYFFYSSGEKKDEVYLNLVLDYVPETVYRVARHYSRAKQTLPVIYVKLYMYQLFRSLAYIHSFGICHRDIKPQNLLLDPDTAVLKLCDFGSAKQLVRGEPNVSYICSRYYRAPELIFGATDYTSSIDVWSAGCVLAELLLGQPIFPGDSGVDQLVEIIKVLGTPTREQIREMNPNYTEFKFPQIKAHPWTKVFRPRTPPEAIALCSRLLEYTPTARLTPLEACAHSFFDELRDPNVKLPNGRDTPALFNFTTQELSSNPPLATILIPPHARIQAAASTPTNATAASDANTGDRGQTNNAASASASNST
The test is described as follows: GSK-3 Inhibition Assay (standard coupled enzyme system). The class given is biochemical. Particulars: 20 μM ATP, 300 μM peptide, 20 nM GSK-3β, 30° C. As to the method:
Compounds of the present invention were screened for their ability to inhibit GSK-3β(AA 1-420) activity using a standard coupled enzyme system (Fox et al., Protein Sci. 1998, 7, 2249). Reactions were carried out in a solution containing 100 mM HEPES (pH 7.5), 10 mM MgCl2, 25 mM NaCl, 300 μM NADH, 1 mM DTT and 1.5% DMSO. Final substrate concentrations in the assay were 20 μM ATP (Sigma Chemicals, St Louis, Mo.) and 300 μM peptide (American Peptide, Sunnyvale, Calif.). Reactions were carried out at 30° C. and 20 nM GSK-3β. Final concentrations of the components of the coupled enzyme system were 2.5 mM phosphoenolpyruvate, 300 μM NADH, 30 μg/ml pyruvate kinase and 10 μg/ml lactate dehydrogenase.
An assay stock buffer solution was prepared containing all of the reagents listed above with the exception of ATP and the test compound of the present invention. The assay stock buffer solution (175 μl) was incubated in a 96 well plate with 5 μl of the test compound of the present invention at final concentrations spanning 0.002 μM to 30 μM at 30° C. for 10 min. Typically, a 12-point titration was conducted by preparing serial dilutions (from 10 mM compound stocks) with DMSO of the test compounds of the present invention in daughter plates. The reaction was initiated by the addition of 20 μl of ATP (final concentration 20 μM). Rates of reaction were obtained using a Molecular Devices Spectramax plate reader (Sunnyvale, Calif.) over 10 min at 30° C. The Ki values were determined from the rate data as a function of inhibitor concentration.
A word on the pKi: it is the negative decadic logarithm of the Ki, by convention in mol/L. As for `Cc1cc(Nc2cc(N3CCC3)nc(-c3ccccc3Cl)n2)n[nH]1` [Compound I-1, 6-(Azetidin-1-yl)-2-(2-chlorophenyl)-N-(5-methyl-1H-pyrazol-3-yl)pyrimidin-4-amine], the negative-log Ki (pKi) is 6.30 to 7.30.

Turning to `Cc1cnc(Nc2cc(N3CCC3)nc(-c3ccccc3Cl)n2)s1` [Compound I-2], the negative logarithm of the Ki (pKi) was greater than 7.30.

Consider `Fc1cnc2[nH]nc(Nc3cc(N4CCC4)nc(-c4ccccc4Cl)n3)c2c1` [Compound I-3], for which the pKi is greater than 7.30.

Regarding `Cc1cc(Nc2cc(N3CC(F)(F)C3)nc(-c3ccccc3Cl)n2)n[nH]1` [Compound I-4], the pKi is 6.30 to 7.30.

`Cc1cc(Nc2cc(N3CC(F)(C4CC4)C3)nc(-c3ccccc3Cl)n2)n[nH]1` [Compound I-5] had a pKi of 6.30 to 7.30.

In turn, `Cc1cc(Nc2cc(N3CC(O)(C(C)(C)C)C3)nc(-c3ccccc3Cl)n2)n[nH]1` [Compound I-8] gave a pKi of 5.30 to 6.00.

Turning to `Fc1cnc2[nH]nc(Nc3cc(N4CC(F)(C5CC5)C4)nc(-c4ccccc4Cl)n3)c2c1` [Compound I-9], the pKi was greater than 7.30.

`OC1(C2CC2)CN(c2cc(Nc3n[nH]c4ccc(F)cc34)nc(-c3ccccc3Cl)n2)C1` [Compound I-10] had a pKi of 6.30 to 7.30.

As to `OC1(C2CC2)CN(c2cc(Nc3n[nH]c4ncc(F)cc34)nc(-c3ccccc3Cl)n2)C1` [Compound I-11], the pKi is greater than 7.30.

As for `Cc1cc(Nc2cc(C3CNC3)nc(-c3ccccc3Cl)n2)n[nH]1` [Compound I-12, 6-(Azetidin-3-yl)-2-(2-chlorophenyl)-N-(5-methyl-1H-pyrazol-3-yl)pyrimidin-4-amine], the pKi was 6.30 to 7.30.

Still in this test, the particulars now being: range printed with mixed units (500 nM to 1 uM); 20 μM ATP, 30° C.
As for `Cc1cc(Nc2cc(N3CC(O)(C4CC4)C3)nc(-c3ccccc3Cl)n2)n[nH]1` [Compound I-6], the negative logarithm of the Ki (pKi) is 6.00 to 6.30.

In turn, `Cc1cc(Nc2cc(N3CC(C)(O)C3)nc(-c3ccccc3Cl)n2)n[nH]1` [Compound I-7] gave a negative logarithm of the Ki (pKi) of 6.00 to 6.30.
